The record followed here is patent US12686846B2, “Plant sweet and yeast MSF transporter capable of transporting different sugars simultaneously” (THE BOARD OF TRUSTEES OF THE UNIVERSITY OF ILLINOIS, priority 2020, dated 2026).

Structures are written as SMILES.

The target of assay [1] is T1, Saccharomyces cerevisiae ScGal2 (Gal2) transporter, SEQ ID NO:32 (Saccharomyces cerevisiae, UniProt P13181).
T1 construct: expressed in transfected cells; host or cells: S. cerevisiae SR8D8 (SR8 with HXT1-7 and GAL2 deleted), plasmid p42K-GPD1p-CYC1t
T1 sequence (P13181 1-574): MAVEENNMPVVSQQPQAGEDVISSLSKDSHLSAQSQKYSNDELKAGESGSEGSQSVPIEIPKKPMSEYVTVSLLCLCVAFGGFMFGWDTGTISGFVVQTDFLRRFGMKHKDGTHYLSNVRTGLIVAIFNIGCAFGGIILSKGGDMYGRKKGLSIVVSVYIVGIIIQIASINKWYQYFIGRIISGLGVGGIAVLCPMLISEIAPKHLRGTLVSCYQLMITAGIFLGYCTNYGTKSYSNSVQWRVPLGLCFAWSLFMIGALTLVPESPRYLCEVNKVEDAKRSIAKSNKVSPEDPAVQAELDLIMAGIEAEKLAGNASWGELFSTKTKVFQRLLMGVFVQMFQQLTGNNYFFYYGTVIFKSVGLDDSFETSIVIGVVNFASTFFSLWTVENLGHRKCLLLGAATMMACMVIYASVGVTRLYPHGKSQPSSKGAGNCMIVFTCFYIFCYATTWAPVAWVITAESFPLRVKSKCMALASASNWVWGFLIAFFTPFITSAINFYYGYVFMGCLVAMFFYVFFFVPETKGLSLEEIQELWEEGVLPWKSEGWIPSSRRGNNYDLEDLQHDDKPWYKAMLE
The experiment in a line: C14 labeled sugar uptake assay (zero-trans influx), SR8D8 expressing ScGal2. The note with it: initial glucose uptake (5 s), 30° C., pH 6.5. The class given is cell-based. As for the experimental part:
(§1) FIG. 7A illustrates sugar uptake kinetics by SR8D8. FIG. 7B illustrates sugar uptake kinetics by SR8D8 expressing AtSWEET1. FIG. 7C illustrates sugar uptake kinetics by SR8D8 expressing ScGal2. FIG. 7D illustrates sugar uptake kinetics by SR8D8 expressing AtSWEET7. FIG. 7E illustrates sugar uptake kinetics by SR8D8 expressing LST1_205437. Initial xylose uptake (20 s) was measured at 30° C. over a concentration range of 1 to 500 mM xylose. FIG. 7F illustrates sugar uptake kinetics by SR8D8. FIG. 7G illustrates sugar uptake kinetics by SR8D8 expressing AtSWEET1. FIG. 7H illustrates sugar uptake kinetics by SR8D8 expressing ScGal2. FIG. 7I illustrates sugar uptake kinetics by SR8D8 expressing AtSWEET7. FIG. 7J illustrates sugar uptake kinetics by SR8D8 expressing LST1_205437. Initial glucose uptake (5 s) was measured at 30° C. over a concentration range of 0.2 to 100 mM glucose. Curve fitting for Michaelis-Menten kinetics was applied to data of three independent measurements at each concentration.
A xylose fermenting S. cerevisiae yeast (SR8) with HXT1-7Δ, GAL2Δ deletions was used for transporter screening and characterization (SR8D8). SR8D8 was grown in YPE medium/plate (10 g/L yeast extract, 20 g/L peptone, and 5 g/L ethanol). […] Biomass was calculated from the OD600 measured using a Biomate 5 UV-visible spectrophotometer (Fisher, NY, USA). All growth rates were measured using a Bioscreen C plate reader system (Growth Curves USA, Piscataway, NJ, USA). […]
SR8D8 containing the respective plasmid was grown on selective YPE medium to an OD600 of 1-1.5, harvested by centrifugation, and washed twice in ice-cold uptake buffer (100 mM potassium phosphate, pH 6.5). […] Radioactivity was analyzed in a Beckman-Coulter LS6500 multi-purpose liquid scintillation counter (Beckman-Coulter, CA, USA).
Uptake was measured at sugar concentrations 0.2, 1, 5, 25, and 100 mM for glucose and 1, 5, 25, 66, 100, 200, and 500 mM for xylose. Inhibition of xylose uptake by glucose was measured at 25, 66, and 100 mM xylose with additional 25 and 100 mM unlabeled glucose.

Assay [2] has as its target T2, Arabidopsis thaliana AtSWEET7 transporter, wild type (Table 2: SEQ ID NO: 3; FIG. 12: SEQ ID NO:2) (Arabidopsis thaliana, UniProt Q8LBF7).
T2 construct: expressed in transfected cells; host or cells: S. cerevisiae SR8D8 (SR8 with HXT1-7 and GAL2 deleted), plasmid p42K-GPD1p-CYC1t
T2 sequence (Q8LBF7 1-258): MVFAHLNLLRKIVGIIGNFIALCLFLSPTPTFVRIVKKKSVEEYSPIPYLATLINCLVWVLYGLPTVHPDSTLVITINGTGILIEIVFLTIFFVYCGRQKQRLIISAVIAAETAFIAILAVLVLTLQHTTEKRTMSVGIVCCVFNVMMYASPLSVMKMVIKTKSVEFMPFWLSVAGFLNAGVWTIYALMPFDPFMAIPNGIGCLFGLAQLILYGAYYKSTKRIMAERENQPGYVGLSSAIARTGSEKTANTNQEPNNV
The experiment in a line: C14 labeled sugar uptake assay (zero-trans influx), SR8D8 expressing AtSWEET7. The format is cell-based. The note with it: initial glucose uptake (5 s), 30° C., pH 6.5; cell wet weight; ± SEM. How it is done:
as §1, with “Curve fitting for Michaelis-Menten kinetics was applied to data of three independent measurements at each concentration.” left out
A xylose fermenting S. cerevisiae yeast (SR8) with HXT1-7Δ, GAL2Δ deletions was used for transporter screening and characterization (SR8D8). […] Biomass was calculated from the OD600 measured using a Biomate 5 UV-visible spectrophotometer (Fisher, NY, USA). All growth rates were measured using a Bioscreen C plate reader system (Growth Curves USA, Piscataway, NJ, USA). […]
Uptake was measured at sugar concentrations 0.2, 1, 5, 25, and 100 mM for glucose and 1, 5, 25, 66, 100, 200, and 500 mM for xylose. […]

As for `OC[C@H]1OC(O)[C@H](O)[C@@H](O)[C@@H]1O` (stereo partly drawn) [Glucose], the “Vmax (glucose)” value amounted to 38.33 nmol/min/mg in assay [1]; 38.3 ± 1.4 nmol/min/mg in assay [1] (cell wet weight, ± SEM); 110.3 ± 7.2 nmol/min/mg in assay [2].
